Test results reported in publication PMC7782793, “Hydroxamic acid-modified peptide microarrays for profiling isozyme-selective interactions and inhibition of histone deacetylases” (Nature Communications, 2021).
“And” between values parts separate entries of the source, which are not always exact repeats. Equal entries are not always repeated. Marks after values point to notes of the source that are not given here. Non-standard residues stand in square brackets, D forms with d. Residues, ends and D or L forms follow the SMILES beside them. *: point of attachment. Asu = N[C@@H](CCCCCC(=O)O)C(=O)O; NHOH = ON*

Experiments:
Type in all cases: biochemical
HDAC8 = molecular target: T1, HDAC8 (Homo sapiens, UniProt Q9BY41); assay: HDAC inhibition assay (fluorogenic, Ac-Leu-Gly-Lys(Tfa)-AMC); settings: HDAC8, replicates
T1 construct: HDAC8 (full length, C-terminal His tag, BPS Bioscience, cat. #: 50008); purchased BPS Bioscience 50008
T1 sequence (Q9BY41 1-377): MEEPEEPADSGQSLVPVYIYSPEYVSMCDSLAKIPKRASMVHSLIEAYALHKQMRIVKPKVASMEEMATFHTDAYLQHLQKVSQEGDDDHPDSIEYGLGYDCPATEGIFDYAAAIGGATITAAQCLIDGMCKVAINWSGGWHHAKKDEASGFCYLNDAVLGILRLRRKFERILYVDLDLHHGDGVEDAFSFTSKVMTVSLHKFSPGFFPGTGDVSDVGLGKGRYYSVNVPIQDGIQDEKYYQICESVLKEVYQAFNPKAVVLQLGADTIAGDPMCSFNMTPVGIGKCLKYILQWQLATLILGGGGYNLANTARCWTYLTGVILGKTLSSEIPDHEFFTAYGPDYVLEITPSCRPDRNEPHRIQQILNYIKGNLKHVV

HDAC2 = molecular target: T2, HDAC2 (Homo sapiens, UniProt Q92769); assay: HDAC inhibition assay (fluorogenic, Ac-Leu-Gly-Lys(Ac)-AMC); settings: HDAC2, replicates
T2 construct: HDAC2 (full length, C-terminal His tag, BPS Bioscience, cat. #: 50002); purchased BPS Bioscience 50002
T2 sequence (Q92769 whole entry): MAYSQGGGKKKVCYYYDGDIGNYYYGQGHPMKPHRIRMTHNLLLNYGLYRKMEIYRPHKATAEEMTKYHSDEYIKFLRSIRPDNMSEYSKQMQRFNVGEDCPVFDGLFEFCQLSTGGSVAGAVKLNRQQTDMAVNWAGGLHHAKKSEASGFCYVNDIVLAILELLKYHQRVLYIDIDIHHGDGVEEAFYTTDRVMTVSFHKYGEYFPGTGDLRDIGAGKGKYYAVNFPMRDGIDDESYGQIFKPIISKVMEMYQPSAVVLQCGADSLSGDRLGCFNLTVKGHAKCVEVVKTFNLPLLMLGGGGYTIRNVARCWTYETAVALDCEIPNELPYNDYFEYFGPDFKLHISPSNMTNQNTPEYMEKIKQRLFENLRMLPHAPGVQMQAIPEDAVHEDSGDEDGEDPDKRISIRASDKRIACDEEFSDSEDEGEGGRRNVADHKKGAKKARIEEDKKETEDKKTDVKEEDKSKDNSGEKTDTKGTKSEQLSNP

HDAC3/NCoR2 = molecular target: T3, HDAC3/NCoR2 (Homo sapiens, UniProt O15379); assay: as above; settings: HDAC3, replicates
T3 construct: HDAC3/NCoR2 (full length, C-terminal His tag, NCoR2 N-terminal GST tag); purchased BPS Bioscience 50003
T3 sequence (O15379 whole entry): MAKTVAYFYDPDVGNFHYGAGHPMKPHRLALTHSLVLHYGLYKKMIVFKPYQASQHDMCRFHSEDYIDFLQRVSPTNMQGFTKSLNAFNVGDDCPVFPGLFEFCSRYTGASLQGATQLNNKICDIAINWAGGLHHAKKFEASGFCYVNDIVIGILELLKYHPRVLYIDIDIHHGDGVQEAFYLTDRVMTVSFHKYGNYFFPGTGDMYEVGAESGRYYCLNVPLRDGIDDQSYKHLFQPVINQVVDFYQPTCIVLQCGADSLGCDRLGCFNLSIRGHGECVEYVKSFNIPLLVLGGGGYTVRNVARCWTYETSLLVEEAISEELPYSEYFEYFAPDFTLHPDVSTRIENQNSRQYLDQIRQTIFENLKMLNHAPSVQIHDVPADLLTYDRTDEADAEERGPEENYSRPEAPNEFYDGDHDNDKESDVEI
T3 sequence (Q9Y618 389-480 partner limits assumed): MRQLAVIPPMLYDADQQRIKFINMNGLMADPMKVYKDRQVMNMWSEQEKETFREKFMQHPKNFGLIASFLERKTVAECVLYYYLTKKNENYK

HDAC6 = molecular target: T4, HDAC6 (Homo sapiens, UniProt Q9UBN7); assay: as above; settings: HDAC6, replicates
T4 construct: HDAC6 (full length, BPS Bioscience, cat. #: 50056); purchased BPS Bioscience 50056
T4 sequence (Q9UBN7 1-1215): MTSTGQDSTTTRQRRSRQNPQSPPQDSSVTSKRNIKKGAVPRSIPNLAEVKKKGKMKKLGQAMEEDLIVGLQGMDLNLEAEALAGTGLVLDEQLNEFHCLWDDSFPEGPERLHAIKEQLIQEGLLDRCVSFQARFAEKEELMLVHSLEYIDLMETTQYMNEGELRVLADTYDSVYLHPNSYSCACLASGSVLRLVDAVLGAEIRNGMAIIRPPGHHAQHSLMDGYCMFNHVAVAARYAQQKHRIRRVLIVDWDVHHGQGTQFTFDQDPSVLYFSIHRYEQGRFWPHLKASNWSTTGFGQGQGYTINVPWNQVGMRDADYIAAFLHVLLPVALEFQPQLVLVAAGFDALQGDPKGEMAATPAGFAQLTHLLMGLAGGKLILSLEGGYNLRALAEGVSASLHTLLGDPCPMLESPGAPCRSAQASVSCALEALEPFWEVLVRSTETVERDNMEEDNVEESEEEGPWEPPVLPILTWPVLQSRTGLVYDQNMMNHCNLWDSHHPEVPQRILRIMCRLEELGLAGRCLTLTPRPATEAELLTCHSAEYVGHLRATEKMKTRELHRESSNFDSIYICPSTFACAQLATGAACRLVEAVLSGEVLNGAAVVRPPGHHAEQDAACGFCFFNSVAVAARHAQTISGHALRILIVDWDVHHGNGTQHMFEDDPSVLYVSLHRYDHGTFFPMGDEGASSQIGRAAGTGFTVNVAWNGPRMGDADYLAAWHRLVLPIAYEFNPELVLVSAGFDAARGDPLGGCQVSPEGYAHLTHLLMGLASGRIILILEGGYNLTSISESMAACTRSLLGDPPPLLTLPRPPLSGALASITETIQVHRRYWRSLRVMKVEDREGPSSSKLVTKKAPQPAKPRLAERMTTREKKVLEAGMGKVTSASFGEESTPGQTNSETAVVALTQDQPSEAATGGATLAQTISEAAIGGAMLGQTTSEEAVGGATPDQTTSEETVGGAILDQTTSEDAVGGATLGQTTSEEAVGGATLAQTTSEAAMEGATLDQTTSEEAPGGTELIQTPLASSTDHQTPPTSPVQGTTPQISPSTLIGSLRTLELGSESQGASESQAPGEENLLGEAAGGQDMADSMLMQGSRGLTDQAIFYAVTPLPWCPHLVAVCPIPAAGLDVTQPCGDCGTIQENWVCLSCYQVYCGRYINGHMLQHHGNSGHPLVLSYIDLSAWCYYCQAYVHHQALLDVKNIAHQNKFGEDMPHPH

HDAC1 = molecular target: T5, HDAC1 (Homo sapiens, UniProt Q13547); assay: as above; settings: HDAC1, replicates
T5 construct: HDAC1 (full length, C-terminal His tag, C-terminal FLAG tag, BPS Bioscience, cat. #: 50051); FLAG (C); purchased BPS Bioscience 50051
T5 sequence (Q13547 whole entry): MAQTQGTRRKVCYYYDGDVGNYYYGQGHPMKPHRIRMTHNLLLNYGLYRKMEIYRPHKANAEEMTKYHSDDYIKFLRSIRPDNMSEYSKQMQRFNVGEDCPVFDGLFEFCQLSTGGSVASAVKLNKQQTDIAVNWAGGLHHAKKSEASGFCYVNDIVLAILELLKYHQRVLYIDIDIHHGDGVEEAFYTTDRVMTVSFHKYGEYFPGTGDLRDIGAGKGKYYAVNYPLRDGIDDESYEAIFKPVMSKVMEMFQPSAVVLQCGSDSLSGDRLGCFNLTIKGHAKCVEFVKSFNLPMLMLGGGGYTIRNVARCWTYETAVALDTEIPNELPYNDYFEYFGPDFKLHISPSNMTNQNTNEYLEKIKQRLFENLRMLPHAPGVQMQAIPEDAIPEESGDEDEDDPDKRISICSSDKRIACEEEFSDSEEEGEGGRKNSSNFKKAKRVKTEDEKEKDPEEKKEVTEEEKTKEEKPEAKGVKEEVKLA

[1] = log[inhibitor(M)] -10,5850266520292*

CC(=O)N[C@@H](CCCCN)C(=O)NCC(=O)NCC(=O)N[C@@H](CCCCN)C(=O)NCC(=O)N[C@@H](CC(C)C)C(=O)NCC(=O)N[C@@H](CCCCCC(=O)NO)C(=O)NCC(=O)NCC(=O)N[C@@H](C)C(=O)N[C@@H](CCCCN)C(=O)N[C@@H](CCCNC(=N)N)C(=O)N[C@@H](Cc1c[nH]cn1)C(=O)N[C@@H](CCCNC(=N)N)C(=O)N[C@@H](Cc1c[nH]c2ccccc12)C(N)=O [1a] (Ac-KGGKGLG[Asu](NHOH)GGAKRHRW-NH2)
residual enzymatic activity relative to control wells (HDAC8; log[inhibitor(M)] -4.30103): 0.7299 and 0.6853
residual enzymatic activity relative to control wells (HDAC8; log[inhibitor(M)] -5): 2.535 and 2.3091
residual enzymatic activity relative to control wells (HDAC8; log[inhibitor(M)] -5.69897): 8.883 and 8.651
residual enzymatic activity relative to control wells (HDAC8; log[inhibitor(M)] -6.39794): 23.8025 and 24.0279
residual enzymatic activity relative to control wells (HDAC8; log[inhibitor(M)] -7.09691): 53.2804 and 53.6221
residual enzymatic activity relative to control wells (HDAC8; log[inhibitor(M)] -7.79588): 81.5639 and 82.7228
residual enzymatic activity relative to control wells (HDAC8; log[inhibitor(M)] -8.49485): 92.8692 and 94.6574
residual enzymatic activity relative to control wells (HDAC8; log[inhibitor(M)] -9.19382): 96.2557 and 98.5897
residual enzymatic activity relative to control wells (HDAC8; log[inhibitor(M)] -9.89279): 97.4874 and 100.887
residual enzymatic activity relative to control wells (HDAC8; [1]): 99,4860668* and 101,450216*
residual enzymatic activity relative to control wells (HDAC2; log[inhibitor(M)] -5): 2.133 and 2.791
residual enzymatic activity relative to control wells (HDAC2; log[inhibitor(M)] -5.69897): 7.69 and 10.6271
residual enzymatic activity relative to control wells (HDAC2; log[inhibitor(M)] -7.79588): 81.9038 and 87.9722
residual enzymatic activity relative to control wells (HDAC2; [1]): 96,4513363* and 102,627848*
residual enzymatic activity relative to control wells (HDAC3/NCoR2; log[inhibitor(M)] -4.30103): 0,27707809* and 0,48240325*
residual enzymatic activity relative to control wells (HDAC3/NCoR2; log[inhibitor(M)] -5): 1.078 and 1.224
residual enzymatic activity relative to control wells (HDAC3/NCoR2; log[inhibitor(M)] -5.69897): 2.835 and 3.644
residual enzymatic activity relative to control wells (HDAC3/NCoR2; log[inhibitor(M)] -6.39794): 8.976 and 10.8935
residual enzymatic activity relative to control wells (HDAC3/NCoR2; log[inhibitor(M)] -7.09691): 20.3107 and 23.0019
residual enzymatic activity relative to control wells (HDAC3/NCoR2; log[inhibitor(M)] -7.79588): 35.6703 and 40.8157
residual enzymatic activity relative to control wells (HDAC3/NCoR2; log[inhibitor(M)] -8.49485): 61.9563 and 69.3477
residual enzymatic activity relative to control wells (HDAC3/NCoR2; log[inhibitor(M)] -9.19382): 85.7851 and 89.42
residual enzymatic activity relative to control wells (HDAC3/NCoR2; log[inhibitor(M)] -9.89279): 97.8645 and 95.529
residual enzymatic activity relative to control wells (HDAC3/NCoR2; log[inhibitor(M)] -10.585): 99.8741 and 99.2523
residual enzymatic activity relative to control wells (HDAC6; log[inhibitor(M)] -4.30103): 2.005 and 0.9042
residual enzymatic activity relative to control wells (HDAC6; log[inhibitor(M)] -5): 3.396 and 1.499
residual enzymatic activity relative to control wells (HDAC6; log[inhibitor(M)] -5.69897): 3.721 and 2.924
residual enzymatic activity relative to control wells (HDAC6; log[inhibitor(M)] -6.39794): 6.701 and 7.197
residual enzymatic activity relative to control wells (HDAC6; log[inhibitor(M)] -7.09691): 17.8452 and 18.76
residual enzymatic activity relative to control wells (HDAC6; log[inhibitor(M)] -7.79588): 40.4588 and 44.1884
residual enzymatic activity relative to control wells (HDAC6; log[inhibitor(M)] -8.49485): 67.624 and 70.0247
residual enzymatic activity relative to control wells (HDAC6; log[inhibitor(M)] -9.19382): 82.7418 and 78.8697
residual enzymatic activity relative to control wells (HDAC6; log[inhibitor(M)] -9.89279): 94.6266 and 87.8667
residual enzymatic activity relative to control wells (HDAC6; log[inhibitor(M)] -10.585): 92.0979 and 95.7297
residual enzymatic activity relative to control wells (HDAC1; log[inhibitor(M)] -4.30103): 0.3873 and 0.804
residual enzymatic activity relative to control wells (HDAC1; log[inhibitor(M)] -5): 1.615 and 1.98
residual enzymatic activity relative to control wells (HDAC1; log[inhibitor(M)] -5.69897): 4.97 and 7.056
residual enzymatic activity relative to control wells (HDAC1; log[inhibitor(M)] -6.39794): 17.3755 and 23.9522
residual enzymatic activity relative to control wells (HDAC1; log[inhibitor(M)] -7.09691): 42.4661 and 51.6182
residual enzymatic activity relative to control wells (HDAC1; log[inhibitor(M)] -7.79588): 69.6554 and 78.2753
residual enzymatic activity relative to control wells (HDAC1; log[inhibitor(M)] -8.49485): 90.2096 and 95.3244
residual enzymatic activity relative to control wells (HDAC1; log[inhibitor(M)] -9.19382): 98.0899 and 101.545
residual enzymatic activity relative to control wells (HDAC1; log[inhibitor(M)] -9.89279): 100.633 and 103.923
residual enzymatic activity relative to control wells (HDAC1; [1]): 100,638665* and 104,135042*
